Several values for one entry are separate records, joined by “and”; a condition that tells them apart may be missing. Equal values may be shown once. Read-outs that look alike come from different tables or passages of the source.
Columns and labels:
neoplastic ("CTL") PBMC = assay: Lymphocyte proliferation (3H-TdR incorporation), ConA-stimulated neoplastic PBMC from subject having CTCL; type: cell-based, human; settings: for IC50: read-out: IC50 of ConA-induced cell proliferation
Text: (§1) In two of the types of lymphocytes, the mitogen, ConA, was used to induce proliferation, as described (Fox et al., 1993, Cell. Immunol. 150:45-58). The third type of lymphocytes used in this example proliferated actively in vitro without the need for mitogenic stimulation. The three types of lymphocytes which were used in this example were: PBMC obtained from a normal human subject and stimulated with ConA; PBMC, including malignant CD4+ T-lymphocytes, obtained from a human subject having CTCL and stimulated with ConA; and PBMC obtained from a normal human subject, which PBMC were exposed to Epstein-Barr virus (EBV) after being obtained from the subject, to produce transformed lymphocytes. It is known that EBV-transformed B-lymphocytes proliferate actively in vitro (Polack, 1996, Proc. Natl. Acad. Sci. U.S.A. 93:10411-10416; Longnecker, 1994, Leukemia 8:546-550).
(§2) Peripheral blood mononuclear cells (PBMC) were obtained by separating them from whole blood, using Ficoll-Paque separation techniques and media (Boyum, 1964, Nature 793-794). After they were obtained, PBMC were resuspended in RPMI 1640 medium, which comprised 10% (v/v) fetal bovine serum (GIBCO, Grand Island, N.Y.), and were distributed into the wells of 96-well microtiter plates. PBMC transformed using EBV were made as described (Neitzel, 1986, Hum. Gen. 73:320-326)
(§3) This stock solution stored at 4° C. in the dark. A stock solution comprising 462.5 μM 8-methoxypsoralen (8-MOP) was prepared in 2% (v/v) benzyl alcohol. 8-MOP was obtained from Sigma (St. Louis, Mo.).
(§4) In cultures of transformed leukocytes in which 8-MOP was used, the concentrations of 8-MOP which were used were 92.5 μM, 18.5 μM, 3.7 μM, 0.74 μM, 0.15 μM, and 0.030 μM. Thereafter, ConA was then added to preselected wells to achieve a final concentration of 10 μg/ml of ConA in those wells.
(§5) Following preparation of the microtiter culture plates, preselected plates were illuminated with fluorescent visible light for 10-30 minutes, using four fluorescent bulbs (type F15T8CW, TFC Inc., Taiwan) spaced at a distance of 9 cm above the plates. Other preselected plates were illuminated with 0.5-2 Joules per square centimeter UV-A light using a UV-A light box containing 8 UVAR 06-91 bulbs. Still other preselected plates were not exposed to light. The covers of plates which were exposed to light were left in place during illumination.
(§6) Following illumination, plates which had been illuminated were placed into a dark incubator which was maintained at 37° C. Non-illuminated plates were placed into the incubator immediately after preparation. All plates were incubated for seventy-two hours. During the final eighteen hours of incubation, tritiated thymidine (^3 H-TdR) was added to each well of each plate. No extraordinary precautions were used to prevent light exposure during the addition of ^3 H-TdR.
(§7) Lymphocyte proliferation was assessed by measuring the extent of incorporation of ^3 H-TdR into newly synthesized DNA within the cells at the end of the seventy-two hour incubation period, as described (Fox, 1993, Cell. Immunol. 150:45-58).

transformed ("EBV") PBMC = assay: Lymphocyte proliferation (3H-TdR incorporation), EBV-transformed PBMC; type: cell-based, human; settings: for IC50: read-out: IC50 of cell proliferation; for ability to inhibit proliferation, 2 vs 1 J/cm^2: UV-A 2 J/cm^2 relative to 1 J/cm^2; for effect of UV-A on ability to inhibit proliferation: UV-A vs none; for effect of visible light on ability to inhibit proliferation: visible light vs none
Text: as §1, §2, §3, §4, §5, §6, §7

[1] = test system: PBMC from a patient to whom 8-MOP had been administered; assay: ConA-induced proliferation of PBMC from a patient to whom 8-MOP had been administered, visible light; type: cell-based, human; settings: 20 min
Description: PBMC from a patient to whom 8-MOP had been administered were illuminated for 20 minutes using the bank of visible fluorescent lights used in the experiments described in this example. Proliferation of these cells in response to ConA was measured.

[2] = Absorbance spectrum / photoactivation wavelength; type: physicochemical; settings: 20 μM hypericin in phosphate-buffered saline
Text: Absorbance maxima which were observed included maxima at 327 nm, 563 nm, and 603 nm.

[3] = cited from earlier work
enveloped virus = settings: hypericin photoactivated prior to treatment of virus; cited from earlier work
glioma cells = settings: in vitro; cited from earlier work
leukemia cells = settings: cited from earlier work
[4] = test system: xenografted carcinoma cells; settings: intraperitoneal; local illumination of skin; cited from earlier work
viruses = settings: photoactivated; in vitro; cited from earlier work
leukocytes = settings: photoactivated; cited from earlier work
protein kinase = settings: cited from earlier work
[5] = photoreaction; cited from earlier work
[6] = Homo sapiens, PBMC, 10 min, visible light, 10 min
[7] = Homo sapiens, PBMC, 20 min, visible light, 20 min
[8] = Homo sapiens, PBMC, 0.5 h, visible light, 30 min
[9] = Homo sapiens, PBMC, UV-A, 0.5 J/sc
[10] = Homo sapiens, PBMC, UV-A, 1 J/sc
[11] = Homo sapiens, PBMC, UV-A, 2 J/sc
[12] = Homo sapiens, PBMC, not illuminated

Compound	IC50 (neoplastic ("CTL") PBMC; [6]) [nM]	IC50 (neoplastic ("CTL") PBMC; [7]) [nM]	IC50 (neoplastic ("CTL") PBMC; [9]) [nM]	IC50 (neoplastic ("CTL") PBMC; [10]) [nM]	IC50 (transformed ("EBV") PBMC; [6]) [nM]	IC50 (transformed ("EBV") PBMC; [7]) [nM]	IC50 (transformed ("EBV") PBMC; [8]) [nM]	IC50 (transformed ("EBV") PBMC; [9]) [nM]	IC50 (transformed ("EBV") PBMC; [10]) [nM]	IC50 (transformed ("EBV") PBMC; [11]) [nM]	IC50 (transformed ("EBV") PBMC; [12]) [nM]	ability to inhibit proliferation, 2 vs 1 J/cm^2 (transformed ("EBV") PBMC)	effect of UV-A on ability to inhibit proliferation (transformed ("EBV") PBMC)	effect of visible light on ability to inhibit proliferation (transformed ("EBV") PBMC)	other results
COc1c2occc2cc2ccc(=O)oc12 [8-MOP, 8-methoxypsoralen]	3600	3600	740	200	18700	17300	18900	4200	1600	700	19400	roughly doubled	enhanced significantly upon illumination using UV-A light	not enhanced upon illumination using visible light	IC50 (neoplastic ("CTL") PBMC; [8]): 3100 nM; IC50 (neoplastic ("CTL") PBMC; Homo sapiens, PBMC, not illuminated, benzyl alcohol vehicle itself inhibitory at highest concentrations): 4400 nM; illumination-dependent inhibition of proliferation [1]: No illumination-dependent inhibition of proliferation
Cc1cc(O)c2c(=O)c3c(O)cc(O)c4c5c(O)cc(O)c6c(=O)c7c(O)cc(C)c8c1c2c(c34)c(c78)c65 [hypericin, 1,3,4,6,8,13-Hexahydroxy-10,11,dimethyl-phenanthro[1,10,9,8,-opqra]perylene-7,14-dione]	400	340	1800	570	3200	1800	750	3700	2100	2000	36000	essentially the same	enhanced significantly upon illumination using UV-A light	enhanced significantly upon illumination using visible light	IC100 (neoplastic ("CTL") PBMC; Homo sapiens, PBMC, 72 h, visible light, 20 min, read-out: concentration at which proliferation was completely inhibited): 3.2 µM; inhibition of mitogen-induced proliferation (neoplastic ("CTL") PBMC; malignant PBMC): inhibits mitogen-induced proliferation of PBMC; IC50 (neoplastic ("CTL") PBMC; visible light, 20 min): 530 nM and 300 nM; IC100 (transformed ("EBV") PBMC; Homo sapiens, PBMC, 72 h, visible light, 30 min, read-out: concentration at which proliferation was completely inhibited): 3.2 µM; inhibition of proliferation after 30 min illumination (transformed ("EBV") PBMC; visible light, 30 vs 10 or 20 min): greater than that which resulted from illumination for a period of 10 or 20 minutes; absorbance maximum [2]: 327 nm and 563 nm and 603 nm; presence in skin ([3]; after systemic administration): demonstrated in skin after systemic administration; presence in blood plasma ([3]; following administration to mammals): remains in the blood plasma; half life ([3]; in vivo): 20 to 24 h; effect on enveloped virus (enveloped virus): reduce the infectious titer of the enveloped virus, but did not inactivate the virus; effect of light on antiproliferative effects (glioma cells): only slightly enhance hypericin's antiproliferative effects on glioma cells; inhibition of proliferation (leukemia cells): incapable of inhibiting proliferation of leukemia cells; inhibition of proliferation of xenografted carcinoma cells [4]: inhibited proliferation of these carcinoma cells; inactivation of viruses in blood compositions (viruses): could be used to inactivate viruses in blood compositions in vitro; effect on leukocytes (leukocytes): no effect of hypericin on leukocytes; protein kinase inhibition (protein kinase): inhibits protein kinase activity; singlet oxygen production [5]: produce singlet oxygen
